Positions of bridges follow the written chain, without caps; N, C: chain ends. Residues, ends and D or L forms follow the SMILES beside them.
Legend:
hKv1.3 channel = target: T1, hKv1.3 channel (Homo sapiens, UniProt P22001); test: Whole-cell patch clamp, hKv1.3 channel currents in HEK293T cells; assay type: cell-based; conditions: from IC50 values on hKv1.3 channel
T1 construct: expressed in transfected cells; host or cells: HEK293T cells, co-transfected with pEGFP-N1
Text: In order to verify the differential pharmacological activities between BmK-NSPK, MeuKTX, KTX-2 and KTX-3, their recombinant peptides were produced according to our previous procedure. […] Then, MALDI-TOF-MS was further used to analyze BmK-NSPK. The determined molecular mass was […], which well corresponds to its calculated value of 3659.8 Da. The circular dichroism (CD) spectra also indicated the overall similarity to the secondary structures between BmK-NSPK, MeuKTX, KTX-2 and KTX-3 peptides. […] Subsequently, the patch clamp technique was used to characterize the pharmacological activities of BmK-NSPK, MeuKTX, KTX-2 and KTX-3 peptides according to our previously described procedure. […]
In a 5% CO2 incubator at 37 °C, HEK293T cells were cultured in DMEM medium (Gibco, Grand Island, NY, USA) supplemented with 10% fetal bovine serum and 1% penicillin/streptomycin. […] After one day of transfection, the potassium currents were recorded, and the positive cells were selected based on the presence of GFP fluorescence.
(§1) Whole-cell current measurement and data acquisition were performed using an EPC-10 patch-clamp amplifier controlled by Pulse (HEKA Elektronik, Lambrecht, Germany). The potassium currents were recorded according to the recording protocol for the Kv1 channel, as described in previously published references. […]

hKv1.1 channel = test: Whole-cell patch clamp, hKv1.1 channel currents; assay type: cell-based, human; conditions: 1 μM peptide, mean ± SE, n ≥ 3, SEM
Text: (§2) The pRc/CMV-hKv1.3 was kindly provided by Professor Stephan Grissmer (University of Ulm, Ulm, Germany) and Professor Olaf Pongs (Zentrum für Molekulare Neurobiologie der Universität Hamburg, Hamburg, Germany). The cDNAs encoding hKv1.1 and hKv1.2 (from Professor Stephan Grissmer, University of Ulm, Ulm, Germany) were subcloned into the vector pIRES2-EGFP (TaKaRa Clontech, Mountain View, CA, USA). The cDNAs encoding hKv1.6 were subcloned into the vector pcDNA 3.1(+) (TaKaRa Clontech, Mountain View, CA, USA). A QuikChange Site-Directed Mutagenesis Kit (Stratagene, La Jolla, CA, USA) was used to produce the mutants based on the wild-type hKv1.3 channel plasmids. All plasmids and their mutants were verified by DNA sequencing before the expression. The three channel chimeras were, respectively, named by hKv1.3-M1 (425DPTSGFS432 → 425ERESQFP432), hKv1.3-M2 (452HPV456 → 452VPT456) and hKv1.3-M3 (425DPTSGFS432 → 425ERESQFP432, 452HPV456 → 452VPT456).
(§3) In a 5% CO2 incubator at 37 °C, HEK293T cells were cultured in DMEM medium (Gibco, Grand Island, NY, USA) supplemented with 10% fetal bovine serum and 1% penicillin/streptomycin. Potassium channel plasmids and pEGFP-N1 were co-transfected into the HEK293 cells using the ExFect Transfection Reagent (Vazyme, Nanjin, China). After one day of transfection, the potassium currents were recorded, and the positive cells were selected based on the presence of GFP fluorescence.
as §1, with “references. Peptides were dissolved in an external solution containing 0.01% BSA for electrophysiological experiments.” for “references.”

hKv1.2 channel = test: Whole-cell patch clamp, hKv1.2 channel currents; assay type: cell-based, human; conditions: 1 μM peptide, mean ± SE, n ≥ 3, SEM
Text: as §2, §3
as §1, with “references. Peptides were dissolved in an external solution containing 0.01% BSA for electrophysiological experiments.” for “references.”

hKv1.6 channel = test: Whole-cell patch clamp, hKv1.6 channel currents; assay type: cell-based, human; conditions: 1 μM peptide, mean ± SE, n ≥ 3, SEM
Text: as §2, §3
as §1, with “references. Peptides were dissolved in an external solution containing 0.01% BSA for electrophysiological experiments.” for “references.”

[1] = tested on: hKv1.3-M1 channel (turret domain of hKv1.3 substituted by hKv1.2 region); test: Whole-cell patch clamp, chimeric hKv1.3-M1 channel currents; assay type: cell-based, human; conditions: mean ± SE, n ≥ 3, SEM
Method: In order to further investigate the effect of basic residue number on BmK-NSPK pharmacology, the activities of BmK-NSPK analogs were also tested on the Kv1.3 channel chimeras in this work. […] Based on the weak inhibition potencies of BmK-NSPK-7K and BmK-NSPK-8K towards hKv1.2 channel (Figure 5C,D), the work first constructed the chimeric hKv1.3-M1, in which the turret domain of hKv1.3 channel was substituted by the equivalent region of hKv1.2 channel (Figure 6A). Pharmacological experiments with 100 nM and 1 μM MeuKTX were able to inhibit 45.7 ± 7.9% and 82.8 ± 6.1% of hKv1.3-M1 channel currents, respectively (Figure 6B).
as §2, §3
(§4) Whole-cell current measurement and data acquisition were performed using an EPC-10 patch-clamp amplifier controlled by Pulse (HEKA Elektronik, Lambrecht, Germany). The potassium currents were recorded according to the recording protocol for the Kv1 channel, as described in previously published references. Peptides were dissolved in an external solution containing 0.01% BSA for electrophysiological experiments. The patch pipette solution contained 140 mM KF (Sigma, St. Louis, MC, USA), 2 mM MgCl2 (Sinopharm Chemical Reagent Co., Ltd., Shanghai, China), 1 mM EGTA (Sigma) and 10 mM HEPES (neoFroxx, Einhausen, Hessen, Germany) (pH adjusted to 7.4 with KOH (Sinopharm Chemical Reagent Co., Ltd., Shanghai, China)), and the bath solution contained 4.5 mM KCl, 160 Mm NaCl (Sinopharm Chemical Reagent Co., Ltd., Shanghai, China), 5 mM HEPES, 2 mM CaCl2 (Sinopharm Chemical Reagent Co., Ltd., Shanghai, China) and 1 mM MgCl2 (pH adjusted to 7.4 with NaOH (Sinopharm Chemical Reagent Co., Ltd., Shanghai, China)).
(§5) Graphing and data analysis were conducted using GraphPad Prism software (Version 8.0, San Diego, CA, USA), ClampFit software (version 10.2, Molecular Devices, Sunnyvale, CA, USA), and SigmaPlot software (version 12.0, IBM SPSS, Chicago, IL, USA). The dose–response relationship between the channel current and peptide inhibition was modeled by the modified Hill equation: Ipeptide/Icontrol = 1/{1 + [peptide]/IC50}, where Ipeptide represents the potassium current under peptide inhibition, Icontrol represents the peak current, IC50 is the half-maximal inhibition concentration and [peptide] represents the peptide concentration. The IC50 was obtained by fitting the Hill equation. Results are presented as mean ± SE, with each sample tested on at least three cells (n ≥ 3).

[2] = tested on: hKv1.3-M2 channel (filter region of hKv1.3 substituted by hKv1.2 region); test: Whole-cell patch clamp, chimeric hKv1.3-M2 channel currents; assay type: cell-based, human; conditions: mean ± SE, n ≥ 3, SEM
Method: Apart from the chimeric hKv1.3-M1, this work further constructed the chimeric hKv1.3-M2 channel, in which the filter region of hKv1.3 channel was substituted by the equivalent region of hKv1.2 channel (Figure 6A). Pharmacological experiments 100 nM and 1 μM MeuKTX were able to inhibit 78.3 ± 4.9% and 95.9 ± 1.3% of hKv1.3-M2 channel currents, respectively, which indicated the minor effect of channel filter region on MeuKTX binding (Figure 6B). However, more significant effects were also observed for BmK-NSPK analogs with different numbers of basic residues.
as §2, §3, §4, §5

[3] = tested on: hKv1.3-M3 channel (turret, pore helix and filter region of hKv1.3 replaced by hKv1.2 regions); test: Whole-cell patch clamp, chimeric hKv1.3-M3 channel currents; assay type: cell-based, human; conditions: mean ± SE, n ≥ 3, SEM
Text: as §2, §3, §4, §5

T1 sequence (P22001 whole entry): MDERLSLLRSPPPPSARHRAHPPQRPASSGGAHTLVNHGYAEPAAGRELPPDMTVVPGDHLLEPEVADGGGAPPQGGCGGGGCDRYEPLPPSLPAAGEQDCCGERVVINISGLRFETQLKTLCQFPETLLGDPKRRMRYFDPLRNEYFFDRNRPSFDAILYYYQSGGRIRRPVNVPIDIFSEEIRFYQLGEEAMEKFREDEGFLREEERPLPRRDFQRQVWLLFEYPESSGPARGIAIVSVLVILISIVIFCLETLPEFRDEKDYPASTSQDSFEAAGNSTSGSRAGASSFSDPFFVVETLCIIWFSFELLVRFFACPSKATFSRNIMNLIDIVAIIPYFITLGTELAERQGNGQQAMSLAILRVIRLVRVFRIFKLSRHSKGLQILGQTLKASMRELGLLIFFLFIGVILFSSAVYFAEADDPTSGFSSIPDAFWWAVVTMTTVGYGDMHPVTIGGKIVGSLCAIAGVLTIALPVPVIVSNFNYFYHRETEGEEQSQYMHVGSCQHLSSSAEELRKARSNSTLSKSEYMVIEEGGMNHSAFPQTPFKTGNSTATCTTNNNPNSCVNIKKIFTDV

Question: Which “fold decreased activity on hKv1.3 compared with BmK-NSPK-7K” value (hKv1.3 channel) does the source give for `CSCC[C@@H]1NC(=O)CNC(=O)[C@H](C)NC(=O)[C@H](CC(=O)O)NC(=O)[C@H](CCCCN)NC(=O)[C@@H]2CSSC[C@@H](C(=O)N[C@H](C(=O)N3CCC[C@H]3C(=O)N[C@@H](CCCCN)C(=O)NCC(=O)O)[C@@H](C)O)NC(=O)[C@H](CC(=O)O)NC(=O)[C@@H]3CSSC[C@H](NC(=O)[C@H](CCC(N)=O)NC(=O)CNC(=O)[C@H](CO)NC(=O)[C@H](Cc4c[nH]cn4)NC(=O)[C@H](CCCCN)NC(=O)[C@@H](NC(=O)[C@H](CCCCN)NC(=O)[C@@H](NC(=O)[C@H](CC(N)=O)NC(=O)[C@H](CCCCN)NC(=O)CNC(=O)[C@@H](N)C(C)C)C(C)C)CSSC[C@H](NC(=O)[C@H](CCCCN)NC(=O)CNC(=O)[C@H](Cc4ccccc4)NC(=O)[C@H](CCCNC(=N)N)NC1=O)C(=O)N[C@@H](CCSC)C(=O)N[C@@H](CC(N)=O)C(=O)NCC(=O)N[C@@H](CCCCN)C(=O)N3)C(=O)N[C@@H](CC(C)C)C(=O)N[C@@H](CCCCN)C(=O)N1CCC[C@H]1C(=O)N2` [BmK-NSPK-8K] (H-VGKNVKCKHSGQCLKPCKDAGMRFGKCMNGKCDCTPKG-OH; disulfide 7-27, 13-32, 17-34 (inferred); N-terminus and C-terminus assumed) here?
Answer: ~ 10 fold

Question: What about the “inhibition of hKv1.1 channel currents” value (hKv1.1 channel) of the same molecule?
Answer: 84.3 ± 1.8%

Question: And the “inhibition of hKv1.2 channel currents” value (hKv1.2 channel)?
Answer: 12.3 ± 1.8%

Question: And the “inhibition of hKv1.6 channel currents” value (hKv1.6 channel)?
Answer: 34.1 ± 4.8%

Question: And the “inhibition of hKv1.3-M1 channel currents” value ([1]; 100 nM peptide)?
Answer: 4.5 ± 1.2%

Question: What about the “inhibition of hKv1.3-M1 channel currents” value ([1]; 1 μM peptide) of the same molecule?
Answer: 27.7 ± 4.0%

Question: What about the “inhibition of hKv1.3-M2 channel currents” value ([2]; 100 nM peptide) of the same molecule?
Answer: 8.8 ± 2.6%

Question: What about the “inhibition of hKv1.3-M2 channel currents” value ([2]; 1 μM peptide) of the same molecule?
Answer: 51.3 ± 1.5%

Question: What about the “inhibition of hKv1.3-M3 channel currents” value ([3]; 100 nM peptide) of the same molecule?
Answer: 2.7 ± 0.92%

Question: What about the “inhibition of hKv1.3-M3 channel currents” value ([3]; 1 μM peptide) of the same molecule?
Answer: 5.1± 1.4%

Reference: PMC11819763, “Activity of Potassium Channel BmK-NSPK Inhibitor Regulated by Basic Amino Acid Residues: Novel Insight into the Diverse Peptide Pharmacology” (Molecules, 2025)
